Experimental data: ChEMBL document CHEMBL6096689, “Structure-Guided Development of ClpP Agonists with Potent Therapeutic Activities against Staphylococcus aureus Infection” (J Med Chem, 2025)
In brackets after ≈: the same amount, converted by molar mass. Activity calls are given as the source filed them. The calls are words filed in the database; no cut-off is given here.

Columns and labels:
Staphylococcus aureus [1] = assay: microbe, parasite or virus in culture; format: functional; conditions: NRS-1, time 18 hrs
Description: Antibacterial activity against methicillin-resistant Staphylococcus aureus NRS-1 assessed as inhibition of visible growth of bacteria incubated for 18 hrs by absorbance based analysis

[2] = target: ATP-dependent Clp protease proteolytic subunit (Escherichia coli (strain K12), UniProt P0A6G7); assay: Agonist activity at Escherichia coli ClpP using alpha-casein as substrate assessed as substrate hydrolysis preincubated for 15 mins followed by substrate addition and measured after 2 hrs by SDS-PAGE analysis
Chain of ATP-dependent Clp protease proteolytic subunit (Escherichia coli (strain K12), UniProt P0A6G7) (P0A6G7 whole entry): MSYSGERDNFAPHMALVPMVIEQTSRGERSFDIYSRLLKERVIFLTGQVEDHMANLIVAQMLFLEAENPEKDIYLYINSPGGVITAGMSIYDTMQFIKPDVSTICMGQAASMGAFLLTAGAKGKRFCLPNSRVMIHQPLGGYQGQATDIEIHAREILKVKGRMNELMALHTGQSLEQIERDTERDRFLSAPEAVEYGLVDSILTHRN

[3] = Therapeutic index, ratio of IC50 for HK-2 cells to MIC for Staphylococcus aureus Newman; format: toxicity, cell-based; conditions: human, read-out: TI
Staphylococcus aureus [4] = assay: microbe, parasite or virus in culture; format: functional; conditions: time 18 hrs
Description: Antibacterial activity against multidrug-resistant Staphylococcus aureus clinical isolate XJ025 assessed as inhibition of visible growth of bacteria incubated for 18 hrs by absorbance based analysis

Staphylococcus aureus [5] = assay: microbe, parasite or virus in culture; format: functional; conditions: NRS-108, time 18 hrs
Description: Antibacterial activity against methicillin-resistant Staphylococcus aureus NRS-108 assessed as inhibition of visible growth of bacteria incubated for 18 hrs by absorbance based analysis

[6] = Therapeutic index, ratio of IC50 for HEK293T/17 cells to MIC for Staphylococcus aureus Newman; format: toxicity, cell-based; conditions: human, read-out: TI
Staphylococcus aureus [7] = assay: microbe, parasite or virus in culture; format: functional; conditions: time 18 hrs; remark: listed apart in the source
Description: Antibacterial activity against multidrug-resistant Staphylococcus aureus clinical isolate XJ049 assessed as inhibition of visible growth of bacteria incubated for 18 hrs by absorbance based analysis

[8] = target: T1, ATP-dependent Clp protease proteolytic subunit, mitochondrial (Homo sapiens, UniProt Q16740); assay: Agonist activity at human ClpP extracted from Escherichia coli Rosetta (DE3) cells using alpha-casein as substrate assessed as substrate hydrolysis preincubated for 15 mins followed by substrate addition and measured after 2 hrs by SDS-PAGE analysis
T1 sequence (Q16740 whole entry): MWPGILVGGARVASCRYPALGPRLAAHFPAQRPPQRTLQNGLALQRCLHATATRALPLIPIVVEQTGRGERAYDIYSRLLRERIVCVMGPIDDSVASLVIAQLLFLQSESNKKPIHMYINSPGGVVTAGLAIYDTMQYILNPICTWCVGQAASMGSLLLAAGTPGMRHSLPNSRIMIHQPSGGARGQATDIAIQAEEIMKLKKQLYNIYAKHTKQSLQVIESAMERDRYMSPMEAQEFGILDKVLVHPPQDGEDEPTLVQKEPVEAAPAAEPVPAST

Staphylococcus aureus [9] = assay: microbe, parasite or virus in culture; format: functional; conditions: Newman, time 18 hrs
Description: Antibacterial activity against Staphylococcus aureus Newman assessed as inhibition of visible growth of bacteria incubated for 18 hrs by absorbance based analysis

Staphylococcus aureus [10] = assay: microbe, parasite or virus in culture; format: functional; conditions: NRS-271, time 18 hrs
Description: Antibacterial activity against methicillin-resistant Staphylococcus aureus NRS-271 assessed as inhibition of visible growth of bacteria incubated for 18 hrs by absorbance based analysis

Staphylococcus aureus [11] = assay: microbe, parasite or virus in culture; format: functional; conditions: time 18 hrs; remark: listed apart in the source
Description: Antibacterial activity against multidrug-resistant Staphylococcus aureus clinical isolate XJ009 assessed as inhibition of visible growth of bacteria incubated for 18 hrs by absorbance based analysis

[12] = target: T1, ATP-dependent Clp protease proteolytic subunit, mitochondrial; assay: Induction of thermal stabilization of human ClpP extracted from Escherichia coli Rosetta (DE3) cells assessed as change in melting temperature at 10 uM incubated for 10 mins by DSF analysis
Staphylococcus aureus [13] = assay: microbe, parasite or virus in culture; format: functional; conditions: time 18 hrs; remark: listed apart in the source
Description: Antibacterial activity against multidrug-resistant Staphylococcus aureus clinical isolate XJ051 assessed as inhibition of visible growth of bacteria incubated for 18 hrs by absorbance based analysis

[14] = target: T2, ATP-dependent Clp protease proteolytic subunit (Staphylococcus aureus (strain NCTC 8325), UniProt Q2G036); assay: Agonist activity at Staphylococcus aureus ClpP extracted from Escherichia coli BL21 (DE3) cells using alpha-casein as substrate assessed as substrate hydrolysis preincubated for 15 mins followed by substrate addition and measured after 2 hrs by SDS-PAGE analysis
T2 sequence (Q2G036 whole entry): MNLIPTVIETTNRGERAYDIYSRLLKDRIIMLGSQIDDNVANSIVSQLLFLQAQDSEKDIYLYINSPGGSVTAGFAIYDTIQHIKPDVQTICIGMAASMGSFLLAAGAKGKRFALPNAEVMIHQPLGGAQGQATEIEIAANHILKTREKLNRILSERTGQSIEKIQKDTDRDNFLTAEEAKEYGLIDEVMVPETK

[15] = Agonist activity at Lactobacillus acidophilus ClpP using alpha-casein as substrate assessed as substrate hydrolysis preincubated for 15 mins followed by substrate addition and measured after 2 hrs by SDS-PAGE analysis
Staphylococcus aureus [16] = assay: microbe, parasite or virus in culture; format: functional; conditions: USA300, time 18 hrs
Description: Antibacterial activity against methicillin-resistant Staphylococcus aureus USA300 assessed as inhibition of visible growth of bacteria incubated for 18 hrs by absorbance based analysis

Staphylococcus aureus [17] = assay: microbe, parasite or virus in culture; format: functional; conditions: NRS-70, time 18 hrs
Description: Antibacterial activity against methicillin-resistant Staphylococcus aureus NRS-70 assessed as inhibition of visible growth of bacteria incubated for 18 hrs by absorbance based analysis

[18] = target: T3, ATP-dependent Clp protease proteolytic subunit (Staphylococcus aureus (strain NCTC 8325)) (UniProt Q2G036); assay: Induction of thermal stabilization of Staphylococcus aureus ClpP extracted from Escherichia coli BL21 (DE3) cells assessed as change in melting temperature at 10 uM incubated for 10 mins by DSF analysis
T3 sequence (whole entry): T2 sequence (Q2G036 whole entry)

Staphylococcus aureus [19] = assay: Antibacterial activity against Staphylococcus aureus USA300 infected in Zebrafish infection model assessed as increase in zebrafish survival at 5 to 25 mg/kg pre-infected for 1 hrs followed by compound addition and measured after 5 days; format: functional, organism-based; conditions: dose 5-25 mg/kg, time 5.0 day
[20] = Therapeutic index, ratio of IC50 for human ARH-77 cells to MIC for Staphylococcus aureus Newman; format: toxicity, cell-based; conditions: read-out: TI
Staphylococcus aureus [21] = assay: microbe, parasite or virus in culture; format: functional; conditions: time 18 hrs; remark: listed apart in the source
Description: Antibacterial activity against multidrug-resistant Staphylococcus aureus clinical isolate XJ052 assessed as inhibition of visible growth of bacteria incubated for 18 hrs by absorbance based analysis

[22] = target: T2, ATP-dependent Clp protease proteolytic subunit; assay: Agonist activity at Staphylococcus aureus ClpP extracted from Escherichia coli BL21 (DE3) cells using FITC-casein as substrate assessed as substrate hydrolysis preincubated for 60 mins followed by substrate addition and measured after 1 hrs by fluorescence based analysis
[23] = Cytotoxicity against HEK293T/17 cells by MTT assay; format: toxicity, cell-based; conditions: human
[24] = Octanol/water partition coefficient, log P of the compound at pH 7.4 incubated for 24 hrs by LC-MS analysis; format: physicochemical
Staphylococcus aureus [25] = assay: Antibacterial activity against oxacillin-resistant Staphylococcus aureus clinical isolate XJ049 infected in female ICR mouse peritonitis model assessed as mouse survival at 50 mg/kg, ip pre-infected for 1 hrs followed by compound addition and measured after 5 days relative to control; format: functional; conditions: 120 h, time 5 day
[26] = Therapeutic index, ratio of IC50 for HEK293T/17 cells to MIC for methicillin resistant Staphylococcus aureus NRS 119; format: toxicity, cell-based; conditions: human, read-out: TI
Staphylococcus aureus [27] = assay: Antibacterial activity against methicillin resistant Staphylococcus aureus NRS 119 by CLSI protocol based broth microdilution method; format: functional

Work on `CC[C@H](C)[C@H]1C(=O)N([C@H](C)c2cccc3ccccc23)C[C@@H]2N(C(=O)NCCCC(F)(F)F)CCC(=O)N12` yielded an MIC (Staphylococcus aureus [1]) of 2 µg/mL (≈ 3.76 µM), an EC50 [2] of over 100000 nM and a selectivity ratio [3] of 29. For the same compound, the MIC (Staphylococcus aureus [4]) was 2 µg/mL (≈ 3.76 µM), the MIC (Staphylococcus aureus [5]) was 1 µg/mL (≈ 1.88 µM) and the selectivity ratio [6] was 25. It also gave an MIC (Staphylococcus aureus [7]) of 2 µg/mL (≈ 3.76 µM), an EC50 [8] of 31400 nM and an MIC (Staphylococcus aureus [9]) of 2 µg/mL (≈ 3.76 µM). For the same compound, the MIC (Staphylococcus aureus [10]) was 1 µg/mL (≈ 1.88 µM), the MIC (Staphylococcus aureus [11]) was 2 µg/mL (≈ 3.76 µM) and the ΔTm [12] was 3 °C. It also gave an MIC (Staphylococcus aureus [13]) of 1 µg/mL (≈ 1.88 µM), an EC50 [14] of 1200 nM and an EC50 [15] of over 100000 nM. It also gave an MIC (Staphylococcus aureus [16]) of 1 µg/mL (≈ 1.88 µM), an MIC (Staphylococcus aureus [17]) of 1 µg/mL (≈ 1.88 µM) and a ΔTm [18] of 13 °C. For the same compound, the Activity (Staphylococcus aureus [19]) was “Active”, the selectivity ratio [20] was 27 and the MIC (Staphylococcus aureus [21]) was 2 µg/mL (≈ 3.76 µM). For the same compound, the EC50 [22] was 720 nM.
For `O=C1C2=C(CCN(Cc3ccccc3)C2)N2CCN=C2N1Cc1ccc(C(F)(F)F)cc1`, the MIC (Staphylococcus aureus [1]) was 1 µg/mL (≈ 2.27 µM), the EC50 [2] was 3970 nM and the selectivity ratio [3] was 0.06. The MIC (Staphylococcus aureus [4]) was 0.5 µg/mL (≈ 1.14 µM), the MIC (Staphylococcus aureus [5]) was 0.5 µg/mL (≈ 1.14 µM) and the selectivity ratio [6] was 0.04. For the same compound, the MIC (Staphylococcus aureus [7]) was 0.5 µg/mL (≈ 1.14 µM), the EC50 [8] was 1900 nM and the MIC (Staphylococcus aureus [9]) was 0.002 µg/mL (≈ 0.00454 µM). For the same compound, the MIC (Staphylococcus aureus [10]) was 0.25 µg/mL (≈ 0.568 µM), the IC50 [23] was 0.002 µg/mL (≈ 0.00454 µM) and the MIC (Staphylococcus aureus [11]) was 0.5 µg/mL (≈ 1.14 µM). It also gave a ΔTm [12] of 23.5 °C, an MIC (Staphylococcus aureus [13]) of 0.5 µg/mL (≈ 1.14 µM) and an EC50 [14] of 1200 nM. For the same compound, the EC50 [15] was 1140 nM, the MIC (Staphylococcus aureus [16]) was 0.5 µg/mL (≈ 1.14 µM) and the MIC (Staphylococcus aureus [17]) was 0.5 µg/mL (≈ 1.14 µM). It also gave a ΔTm [18] of 15.9 °C, a selectivity ratio [20] of 0.1 and an MIC (Staphylococcus aureus [21]) of 1 µg/mL (≈ 2.27 µM). It also gave an EC50 [22] of 720 nM.
`O=C1[C@H](Cc2cnc[nH]2)N2C(=O)CCN(C(=O)NCc3ccccc3)[C@H]2CN1Cc1cccc2ccccc12` gave an MIC (Staphylococcus aureus [9]) of over 128 µg/mL, an EC50 [14] of 500 nM and a logD at 24 h [24] of 3.09.
With `Cc1onc(-c2ccccc2)c1C(=O)N[C@@H]1C(=O)N2[C@@H]1SC(C)(C)[C@@H]2C(=O)O` [OXACILLIN] the MIC (Staphylococcus aureus [1]) was 64 µg/mL (≈ 159 µM), the survival at 50 mg/kg (Staphylococcus aureus [25]) was 56% and the MIC (Staphylococcus aureus [4]) was 32 µg/mL (≈ 79.7 µM). For the same compound, the MIC (Staphylococcus aureus [5]) was 0.25 µg/mL (≈ 0.623 µM), the MIC (Staphylococcus aureus [7]) was over 128 µg/mL and the MIC (Staphylococcus aureus [9]) was 0.13 µg/mL (≈ 0.324 µM). The MIC (Staphylococcus aureus [10]) was 32 µg/mL (≈ 79.7 µM), the MIC (Staphylococcus aureus [11]) was over 128 µg/mL and the MIC (Staphylococcus aureus [13]) was over 128 µg/mL. The MIC (Staphylococcus aureus [16]) was 0.25 µg/mL (≈ 0.623 µM), the MIC (Staphylococcus aureus [17]) was 0.25 µg/mL (≈ 0.623 µM) and the MIC (Staphylococcus aureus [21]) was over 128 µg/mL.
Compound `C[C@@H]1C[C@H]2C(=O)OC[C@H](NC(=O)[C@H](Cc3cc(F)cc(F)c3)NC(=O)CCC3CCCCC3)C(=O)N3CCC[C@H]3C(=O)N3CCCC[C@H]3C(=O)N[C@@H](C)C(=O)N2C1` has an IC50 [23] of 3.7 µg/mL (≈ 4.63 µM), a selectivity ratio [26] of 9.3 and an MIC (Staphylococcus aureus [27]) of 0.4 µg/mL (≈ 0.501 µM).
